Experimental data published in publication PMC11695783 (Frontiers in Pharmacology, 2024).
In brackets after ≈: the same amount, converted by molar mass. Several values for one entry are separate records, joined by “and”; a condition that tells them apart may be missing. Equal values may be shown once. Read-outs that look alike come from different tables or passages of the source.

Legend:
[1] = system: Mycoplasma pneumoniae strain M129 (ATCC 29342); assay: Susceptibility assay (broth microdilution MIC, MBC); format: cell-based; conditions: for MBC: M. pneumoniae strain M129; for MIC: M. pneumoniae strain M129, ≈96 h
Method: Mycoplasma pneumoniae strain M129 (ATCC 29342) was obtained from American Type Culture Collection (Manassas, VA, United States) and cultured at 37°C in the presence of 5% CO2 in the modified SP-4 liquid medium (pH 7.4) containing 2.1% (w/v) CM1166 mycoplasma broth base medium (Oxoid, Hants, United Kingdom), 20% (v/v) fetal bovine serum (FBS, Bioexplorer, CO, United States), 0.4% yeast extract (Oxoid), 0.55% (w/v) CMRL 1066 w/L-glutamine culture media powder (MyBioSource, San Diego, CA, United States), 1% D-glucose (Macklin) and 0.004% phenol red (Macklin). […] The solid medium is based on the above formula with the addition of 1% agar, and the characteristic fried egg-like colonies were used for experiments following incubation for 7 d on plates.
The broth microdilution MIC procedure was performed according to standardized methods for microdilution susceptibility testing of mycoplasma species ([Waites et al., 2012]). […] The concentration of organisms should be determined to approximately 10^6 CFU/mL prior to inoculation into 96-well plates. Due to the action of phenol red, the acidic metabolites of microbial growth can turn the medium yellow. […] The MBC assays were performed based on MICs following endpoint reading and the liquid in the high-concentration wells was removed for bacterial counting.

[2] = Pharmacokinetic studies in mice (intravenous and intramuscular, plasma, HPLC-MS/MS); format: in vivo, BALB/c mice; set-up: AUClast / AUCall / AUCINF_obs / AUCINF_pred / AUCINFobs: concentration or dose not given beside the values; conditions: for F / Ka / Kel / T1/2ka / T1/2kel / Tmax / Cmax / AUC0-∞ / Cl / Vd / C0: mice; for AUCINFobs / AUClast / AUClast/AUCINFobs ratio / AUC0-t/AUC0-∞ ratio (AV): non-compartment model; for AUCINFobs / AUClast / AUClast/AUCINFobs ratio: individual mice; for AUC0-t/AUC0-∞ ratio (AV): mean
Method: Pharmacokinetic experimental procedures of compound 16C were measured according to previous reports with some modifications ([Wang et al., 2022]). In brief, BALB/c mice were divided into two groups of eight mice each; one group was injected intravenously and the other was injected intramuscularly with compound 16C at a dose of 10 mg/kg. The dose was based on previous studies of novel pleuromutilin derivatives ([Jin et al., 2019]; [Wang et al., 2022]). Meanwhile, the dose of tiamulin approved by the European Union for intramuscular administration is 10–20 mg/kg ([EMA, 1999]). The volume of the injection was 0.1 mL/10 g. The compound 16C formulation was a filtered solution in 5% DMSO, 5% Tween-80, and 90% normal saline. Blood was obtained from eight mice via the ocular venous plexus at 0.083, 0.167, 0.25, 0.334, 0.5, 0.75, 1, 1.5, 2, 3, 4, 6, 8, and 12 h following tail intravenous or thigh Intramuscular injection. A glass capillary with a diameter of 0.3 mm was inserted into the outer canthus of the mouse, and 200 μL blood was collected using a 1.5 mL anticoagulant centrifuge tube. The blood was centrifuged at 3,000 rpm for 10 min to obtain plasma. 100 μL of plasma was aspirated for drug concentration detection, and eight parallel samples from different mice were obtained at each time point.
All pharmacokinetic experimental samples and method validation samples were added with 4 times the volume of acetonitrile and shaken for 1 min, centrifuged at high speed at 13,000× g for 10 min, and the supernatants were taken and filtered to detect the drug concentration. Some samples with high concentrations were diluted to the linear range prior to analysis.
The extracted samples were analyzed using a high-performance liquid chromatography-tandem mass spectrometry (HPLC-MS/MS) system (Agilent, Santa Clara, CA, United States) 1200 HPLC and Applied Biosystems (Waltham, MA, United States) API 4000 mass spectrometer). HPLC-MS/MS analysis using a Zorbax Eclipse XDB-C18 (4.6 × 50 mm, 3.5 μm) column (Agilent). The mobile phase A (acetonitrile) and B (water) were applied as a gradient as follows: 0–3 min: 15%–95% A and maintain from 3 min to 5 min at 95% A. 5–5.1 min: 95%–15% A and maintain from 5.1 to 10 min at 15% A. Flow rate: 500 μL/min; column temperature: 30°C and injection volume: 4 μL. The electrospray ionization (ESI) source of the mass spectrometer was operated in […], with the following ion source parameters: ion spray voltage 4,500 V, collision gas 7 psi, ion source gas 1 55 psi, ion source gas 2 40 psi, curtain gas 20 psi, source temperature 600°C. The precursor ion m/z of Compound 16C was 633.3, and the product ions m/z were 272.0 (quantifier) 286.9 and 313.0. Declustering potentials (DP) were 140, 140, and 144 V, respectively; entrance potential (EP) was 10 V; collision energy (CE) was 55, 46, and 15 V, respectively; and collision cell exit potential (CXP) was 14 V.
[…] Pharmacokinetic parameters include time to maximum concentration (Tmax), maximum concentration (Cmax), the area under the plasma concentration–time curve (AUC0-∞), clearance rate (CL), the apparent volume of distribution (Vd), bioavailability (F), elimination half-life (T1/2kel) and absorption half-life (T1/2ka).

[3] = system: A549; set-up: method as in PMID 26150841; conditions: A549, 8 μg/mL, compared with the control drugs; ref [30]; cited from earlier work
[4] = system: bronchial epithelial cell line 16HBE; set-up: method as in PMID 26150841; conditions: ref [30]; cited from earlier work
[5] = set-up: method as in Shang et al., 2018; Xianhui, 2010; conditions: piglets, IM; ref Shang et al., 2018; Xianhui, 2010; cited from earlier work

SMILES: C=CC1(C)CC(OC(=O)CSc2ccc(NC(=O)Cc3ccc([N+](=O)[O-])cc3)cc2)C2(C)C(C)CCC3(CCC(=O)C32)C(C)C1O (centres unmarked) [compound 16C, 22–((4-((4-nitrophenyl)acetamido)phenyl)thio)deoxypleuromutilin]
- MBC [1]: 7.812 ng/mL (≈ 0.012 µM)
- MIC [1]: 1.953 ng/mL (≈ 0.00301 µM)
- F ([2]; IM 10 mg/kg): 71.29 ± 19.34%
- Ka ([2]; IM 10 mg/kg): 14.41 ± 7.76 h⁻¹
- Kel ([2]; IM 10 mg/kg): 0.33 ± 0.07 h⁻¹
- T1/2ka ([2]; IM 10 mg/kg): 3.6 ± 1.8 min
- T1/2kel ([2]; IM 10 mg/kg): 2.20 h and 2.20 ± 0.52 h
- Tmax ([2]; IM 10 mg/kg): 0.24 ± 0.09 h
- Cmax ([2]; IM 10 mg/kg, n = 8): 500 ± 110 ng/mL
- AUC0-∞ ([2]; IM 10 mg/kg, two-compartmental model): 1070 ± 230 ng·h/mL
- T1/2ka ([2]; IM 10 mg/kg, listed as Compound 16C): 3.6 min
- AUCINFobs ([2]; IM): 805.258 and 1373.07 and 1092.7 and 1076.67 and 1204.87 and 1450.76 and 1023.1 and 1087.9
- AUClast ([2]; IM): 801.322 and 1354.01 and 1070.85 and 1055.33 and 1188.66 and 1432.45 and 925.896 and 1050.1
- AUClast/AUCINFobs ratio ([2]; IM): 99.5113% and 98.6117% and 98.0006% and 98.0177% and 98.6551% and 98.7381% and 90.4989% and 96.5252%
- AUC0-t/AUC0-∞ ratio (AV) ([2]; IM): 97.32% and 97.3198%
- Cl ([2]; IV 10 mg/kg): 112 ± 27.8 mL/min/kg
- Kel ([2]; IV 10 mg/kg): 0.41 ± 0.14 h⁻¹
- Vd ([2]; IV 10 mg/kg): 3.55 ± 1.32 L/kg
- C0 ([2]; IV 10 mg/kg, n = 8): 5580 ± 1250 ng/mL
- AUC0-∞ ([2]; IV 10 mg/kg, two-compartmental model): 1560 ± 370 ng·h/mL
- T1/2kel ([2]; IV 10 mg/kg, 10 mg/kg): 1.89 h and 1.89 ± 0.61 h
- AUCINFobs ([2]; IV): 1454.8 and 1871.31 and 1501.72 and 1496.6 and 2594.18 and 1752.1 and 2317.09 and 1731
- AUClast ([2]; IV): 1441.26 and 1869.35 and 1488.47 and 1490.96 and 2574.6 and 1734.84 and 2287.49 and 1712.29
- AUClast/AUCINFobs ratio ([2]; IV): 99.0694% and 99.8954% and 99.1179% and 99.6229% and 99.2455% and 99.0149% and 98.7227% and 98.9189%
- AUC0-t/AUC0-∞ ratio (AV) ([2]; IV): 99.20% and 99.2009%
- AUC0-∞ ([2]; IM(10mg/kg), n=8): 1070 ± 230 ng·h/mL
- Cmax ([2]; IM(10mg/kg), n=8): 500 ± 110 ng/mL
- F ([2]; IM(10mg/kg), n=8): 71.29±19.34%
- Ka ([2]; IM(10mg/kg), n=8): 14.41 ± 7.76 h⁻¹
- Kel ([2]; IM(10mg/kg), n=8): 0.33 ± 0.07 h⁻¹
- T1/2ka ([2]; IM(10mg/kg), n=8): 3.6 ± 1.8 min
- T1/2kel ([2]; IM(10mg/kg), n=8): 2.20 ± 0.52 h
- Tmax ([2]; IM(10mg/kg), n=8): 0.24 ± 0.09 h
- AUC0-∞ ([2]; IV(10mg/kg), n=8): 1560 ± 370 ng·h/mL
- C0 ([2]; IV(10mg/kg), n=8): 5580 ± 1250 ng/mL
- Cl ([2]; IV(10mg/kg), n=8): 112 ± 27.8 mL/min/kg
- Kel ([2]; IV(10mg/kg), n=8): 0.41 ± 0.14 h⁻¹
- T1/2kel ([2]; IV(10mg/kg), n=8): 1.89 ± 0.61 h
- Vd ([2]; IV(10mg/kg), n=8): 3.55 ± 1.32 L/kg
- influence on cell viability [3]: only slight influences on the viability
- influence on cell viability [4]: slightly more affected

SMILES: C=C[C@]1(C)C[C@@H](OC(=O)CSCCN(CC)CC)[C@]2(C)[C@H](C)CC[C@]3(CCC(=O)[C@H]32)[C@@H](C)[C@@H]1O [tiamulin, Tiamulin, reference compound]
- bioavailability [5]: 73.51% and 75.73%
- MIC ([1]; read-out: MIC): 7.81 ng/mL (≈ 0.0158 µM)
- MBC ([1]; read-out: MBC): 62.5 ng/mL (≈ 0.127 µM)
